From US20240208949A1, “COMPOSITIONS, FORMULATIONS, AND METHODS FOR HAIR TREATMENT” (Oddity Labs, LLC, priority 2022, published 2024) come the findings set out here.

Data set [1] has as its system human hair follicle dermal papilla cells (hFDPC). Briefly: Human follicle dermal papilla cell (hFDPC) proliferation, cell viability assay. Type of data set: cell-based. To be noted: hFDPCs from donors 25-83 years old; vs DMSO control. As for the experimental part:
The ability of a compound or salt of the present disclosure to increase proliferation of human hair follicle dermal papilla cells (hFDPC) was tested using a cell viability assay, such as the Promega CellTiter-Glo® Luminescent Cell Viability Assay, MTT cell proliferation assay (ATCC® 30-1010K), or manual cell counting. The compound or salt was added at various concentrations spanning at least a 2-log range. hFDPCs were derived from multiple donors ranging from 25-83 years old and cultured on tissue-treated plastic using predefined growth media supplemented with 6-bromoindirubin-3′-Oxime (BIO), recombinant bone morphogenetic protein-2 (BMP-2), and basic fibroblast growth factor (FGFβ), a combination previously found to preserve in situ dermal papilla gene signatures. […] In TABLE 12, A represents less than 20% increased proliferation of hFDPCs, B represents a 20-40% increase, and C represents more than a 40% increase in the proliferation of hFDPCs.

Data set [2] deals with primary human follicle dermal papilla cells (hFDPCs). Description: ROS-Glo assay, intracellular reactive oxygen species. Type of data set: cell-based. To be noted: 50 or 5 μM. As for the experimental part: A ROS-Glo™ assay (Promega) was employed to assess the production of intracellular reactive oxygen species (ROS) for the example compounds at concentrations of either 50 or 5 μM. […] Vehicle represents 0.1% DMSO and DMNQ represents 2,3-dimethoxy-1,4-naphthalenedione, a known ROS-inducer.

Data set [3] deals with T1, cytochrome P450 3A4 (CYP3A4) (Homo sapiens, UniProt P08684).
T1 construct: purchased Promega
T1 sequence (P08684 whole entry): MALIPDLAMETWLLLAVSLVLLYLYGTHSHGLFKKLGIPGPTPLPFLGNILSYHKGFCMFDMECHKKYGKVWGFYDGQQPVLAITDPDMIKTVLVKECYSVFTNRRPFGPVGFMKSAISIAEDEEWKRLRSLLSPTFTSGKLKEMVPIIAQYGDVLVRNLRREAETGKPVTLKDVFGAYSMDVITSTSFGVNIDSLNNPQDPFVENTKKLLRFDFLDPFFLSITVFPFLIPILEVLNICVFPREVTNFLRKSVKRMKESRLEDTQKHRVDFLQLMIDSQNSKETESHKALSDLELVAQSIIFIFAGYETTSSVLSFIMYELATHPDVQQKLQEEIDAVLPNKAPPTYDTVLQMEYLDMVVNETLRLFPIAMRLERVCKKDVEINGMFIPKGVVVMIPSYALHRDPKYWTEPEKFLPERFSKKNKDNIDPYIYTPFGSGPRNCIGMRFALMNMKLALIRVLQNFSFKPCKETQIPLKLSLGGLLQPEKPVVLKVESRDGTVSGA
Briefly: P450-Glo CYP3A4 Assay and Screening System. To be noted: 50 or 5 μM. Type of data set: in vitro ADME. As for the experimental part:
A P450-Glo™ CYP3A4 Assay and Screening System (Promega) was employed to assess the inhibitory potential of the example compounds against CYP3A4 at concentrations of either 50 or 5 μM. […] Vehicle represents 0.1% DMSO and […] is a known cytochrome P450 3A4 inhibitor .

A short description of data set [4]: Stability on open-air storage, LCMS/HPLC-UV. It is filed as physicochemical. As for the experimental part:
A sample was analyzed for stability using LCMS. In both cases, the peak at 1.25 min was determined to be product I-1, while the impurity at 0.66 min was identified as the hydrolysis product 3-B04, as referenced in Scheme 9b. After analysis, the sample was allowed to stand in open air overnight. […] The purity of the compound in FIG. 7B was analyzed to be 95.3% (254 nm), and in FIG. 7D to be 90.61% (254 nm) after standing overnight in air. […] The compound gradually decomposed into compound 3-B04 and propane sulfonic acid.

Data set [5] in a line: Structural stability in solvent mixtures at elevated temperature, LC-UV. It is filed as physicochemical. To be noted: for Purity (LC-UV) after stirring: 80° C., 2 hrs. As for the experimental part: Additionally, the ability of a compound or salt of the present disclosure was evaluated at room temperature as well as at 60° C. for varying periods of time (FIG. 1B). The structural stability of compound I-1 was further explored by stirring this compound in 2 different solvent mixtures at elevated temperatures for 2 hours. (TABLE 13). The samples were analyzed by LC-UV after stirring for 2 hrs (FIG. 2).

Data set [6] can be described thus: Thermal degradation on distillation, NMR. To be noted: distillation at 185° C. (after 30 minutes at 160° C.). Type of data set: physicochemical. As for the experimental part:
Thermal degradation of compound I-1 was evaluated at 160° C. and 185° C. Pure compound I-1 (1.2 g), in the form of a brown oil, was subjected to distillation for 30 minutes at 160° C. When no product was observed, distillation was attempted at 185° C., albeit unsuccessfully.

Data set [7] in a line: Stability in DMI solution, LCMS/HPLC-UV. Type of data set: physicochemical. As for the experimental part: A sample containing compound I-1 was prepared in 1,3-Dimethyl-2-imidazolidinone (DMI), sealed, and stored at room temperature for 7 days. Another sample containing compound I-1 was prepared in DMI and left open for 8 days. The purity of both samples was assessed using LCMS. […] The purity in FIG. 8B was determined to be 92.9%, and the purity in FIG. 8D was also found to be 92.9%.

The nature of data set [8]: Stability in example compositions, HPLC-UV. To be noted: compositions of TABLE 2-TABLE 11, 8 months at room temperature. It is filed as physicochemical. An excerpt: Example of composition (TABLE 2-TABLE 11) preserves the structure and inhibits the hydrolysis of compound I-1, even after storage of 8 months at room temperature.

As for `CSc1nc(-c2ccco2)nn1S(C)(=O)=O` [VII-3], the “Increase Proliferation of hFDPCs (%)” value in data set [1] was “C (C represents more than a 40% increase in the proliferation of hFDPCs)”.
On the same count and under the same terms, in the case of `CCCS(=O)(=O)n1nc(-c2ccco2)nc1SC` [I-4] it was “B (B represents a 20-40% increase)”.
Regarding `CCCCCS(=O)(=O)n1nc(-c2ccco2)nc1SCCOCCOC` [I-5], the “Production of intracellular ROS (oxidative stress)” value in data set [2] is reported as “Elevated levels of ROS”. Further, the “Increase Proliferation of hFDPCs (%)” value in data set [1] is reported as “C (C represents more than a 40% increase in the proliferation of hFDPCs)”. Further, the “Inhibition of CYP3A4 activity” value in data set [3] was “potent inhibitory potential”.
Regarding `CCCS(=O)(=O)n1nc(-c2ccco2)nc1SCCOCCOC` [I-1], the “Increase Proliferation of hFDPCs (%)” value in data set [1] is on record as “C (C represents more than a 40% increase in the proliferation of hFDPCs)”. In addition, the “Purity (254 nm) after standing overnight in air” value in data set [4] (24 hours open-air exposure, room temperature) is 90.61%. Moreover, the “Purity (254 nm), freshly synthesized material post-workup” value in data set [4] (before air exposure (baseline)) is given as 95.3%. Besides, the “Stability on storage in open air” value in data set [4] (room temperature, decomposes into 3-B04 and propane sulfonic acid) is listed as “hydrolyzed upon storage in open air at room temperature”. The “Purity (LC-UV) after stirring” value in data set [5] (0.1% (v/v) HCOOH in H2O/0.1% (v/v) HCOOH in MeCN 1:1) is on record as 95%; in data set [5] (EtOAc/Heptane 1:1) it was above 99%. Further, the “Degradation in acidic conditions” value in data set [5] (acidic conditions, 2 hrs elevated temperature) is “minor degradation”. Further, the “Structural stability in organic solvents” value in data set [5] (organic solvents used for straight phase column chromatography, 2 hrs elevated temperature) is given as “very stable”. Moreover, the Thermal degradation result in data set [6] is listed as “slightly decomposing”. Further, the “Purity (254 nm) in DMI, left open” value in data set [7] (1,3-Dimethyl-2-imidazolidinone (DMI), open air, 8 days) came to 92.9%. Also, the “Purity (254 nm) in DMI, sealed” value in data set [7] (1,3-Dimethyl-2-imidazolidinone (DMI), sealed, room temperature, 7 days) stood at 92.9%. For the same compound, in data set [7] (even when solution exposed to air), the “Stability in DMI” value is on record as “appeared to be stable”. Also, the “Hydrolysis in example composition on storage” value in data set [8] was “minimal hydrolysis”.
In the case of `CCCCCS(=O)(=O)n1nc(-c2ccco2)nc1SCC` [I-6], the “Increase Proliferation of hFDPCs (%)” value in data set [1] was “B (B represents a 20-40% increase)”.
On to `CCSc1nc(-c2ccco2)nn1S(C)(=O)=O` [I-2], for which, in data set [1], the “Increase Proliferation of hFDPCs (%)” value is recorded as “C (C represents more than a 40% increase in the proliferation of hFDPCs)”.
Still for that read-out and setting: the entry for `COCCSc1nc(-c2ccco2)nn1S(C)(=O)=O` [I-3] is “C (C represents more than a 40% increase in the proliferation of hFDPCs)”.
